{
  "source": "patent US7265259B2",
  "about": "“GSK-3β expressed in a transgenic mouse” (Consejo Superior de Investigaciones Clentificas, priority 2000, dated 2007)",
  "system": "Tet/GSK-3β mice",
  "assay": "Genotype frequency of double transgenic mice after prenatal doxycycline treatment (perinatal lethality)",
  "assay_type": "in vivo, mouse",
  "details": "14% without treatment, 25% expected",
  "from_the_text": "Tet/GSK-3B mice were viable and fertile and appeared normal without pharmacological intervention to suppress transgene expression. This seemed to contradict the previously postulated toxicity of increased GSK-3β expression in brain (Brownlees et al., 1997). […] The Tet/GSK-3β mice were underrepresented (14%, n=401). This might be indicative of lethality due to embryonic overexpression of GSK-3β in Tet/GSK-3β mice.\nWe had previously observed perinatal transgene expression and lethality in our CamKIIα-tTA driven animal model of Huntington's disease (HD94) (Yamamoto et al., 2000). In the case of HD94 mice, if pregnant mice are given the tetracycline analog doxycycline (2 mg/ml) in the drinking water ad libitum from E15 to birth, only postnatal transgenic expression takes place and the frequency of the four expected genotypes is restored to 25%. We thus decided to apply the same program of perinatal doxycycline treatment to the Tet/GSK-3B mice. […] As expected, prenatal doxycycline treatment normalized to 25% the frequency of Tet/GSK-3β mice and thus, to maximize yield of double transgenic mice in litters, the perinatal doxycycline treatment was routinely employed.",
  "data": [
    {"smiles": "C[C@H]1c2cccc(O)c2C(=O)C2=C(O)[C@]3(O)C(=O)C(C(N)=O)=C(O)[C@@H](N(C)C)[C@@H]3[C@@H](O)[C@@H]21", "note": "[doxycycline]", "values": [
      {"measurement": "frequency of Tet/GSK-3β mice", "result": 25, "unit": "%"}
    ]}
  ]
}
